Data from the NIST ThermoML archive (doi:10.1007/s10765-005-5566-6).
± gives the expanded uncertainty stated by the source.

Settings: Gas, Hot wire method

With `O=C=O` [carbon dioxide] the thermal conductivity (298.89 K, 6100 kPa) was 0.03312 ± 0.00059 W/m/K, the thermal conductivity (299.02 K, 5760 kPa) was 0.02896 ± 0.00053 W/m/K and the thermal conductivity (299.19 K, 5400 kPa) was 0.02633 ± 0.00048 W/m/K. For the same compound, the thermal conductivity (299.31 K, 5035 kPa) was 0.02441 ± 0.00045 W/m/K, the thermal conductivity (299.5 K, 4555 kPa) was 0.02268 ± 0.00042 W/m/K and the thermal conductivity (299.6 K, 3980 kPa) was 0.02109 ± 0.00039 W/m/K. For the same compound, the thermal conductivity (299.73 K, 3285 kPa) was 0.01968 ± 0.00037 W/m/K, the thermal conductivity (299.85 K, 2555 kPa) was 0.01861 ± 0.00035 W/m/K and the thermal conductivity (300.06 K, 1702 kPa) was 0.01777 ± 0.00034 W/m/K. For the same compound, the thermal conductivity (300.37 K, 714 kPa) was 0.01712 ± 0.00033 W/m/K, the thermal conductivity (302.67 K, 6635 kPa) was 0.037 ± 0.00066 W/m/K and the thermal conductivity (302.77 K, 6400 kPa) was 0.03309 ± 0.00059 W/m/K. For the same compound, the thermal conductivity (302.8 K, 6025 kPa) was 0.02905 ± 0.00053 W/m/K, the thermal conductivity (302.86 K, 5675 kPa) was 0.02694 ± 0.00049 W/m/K and the thermal conductivity (302.92 K, 5290 kPa) was 0.02471 ± 0.00045 W/m/K. It also gave a thermal conductivity (302.97 K, 4870 kPa) of 0.02339 ± 0.00043 W/m/K, a thermal conductivity (303.08 K, 4340 kPa) of 0.02178 ± 0.0004 W/m/K and a thermal conductivity (303.22 K, 3765 kPa) of 0.02053 ± 0.00038 W/m/K. It also gave a thermal conductivity (303.51 K, 3160 kPa) of 0.01961 ± 0.00037 W/m/K, a thermal conductivity (303.81 K, 2415 kPa) of 0.01872 ± 0.00035 W/m/K and a thermal conductivity (303.99 K, 1612 kPa) of 0.01795 ± 0.00034 W/m/K. For the same compound, the thermal conductivity (304.21 K, 724 kPa) was 0.01741 ± 0.00033 W/m/K, the thermal conductivity (324.87 K, 7960 kPa) was 0.03214 ± 0.00058 W/m/K and the thermal conductivity (324.9 K, 7750 kPa) was 0.03118 ± 0.00056 W/m/K. For the same compound, the thermal conductivity (324.92 K, 7440 kPa) was 0.02954 ± 0.00054 W/m/K, the thermal conductivity (324.95 K, 5960 kPa) was 0.02501 ± 0.00046 W/m/K and the thermal conductivity (325.01 K, 6900 kPa) was 0.02771 ± 0.0005 W/m/K. The thermal conductivity (325.04 K, 6760 kPa) was 0.02716 ± 0.0005 W/m/K, the thermal conductivity (325.1 K, 5575 kPa) was 0.02434 ± 0.00045 W/m/K and the thermal conductivity (325.12 K, 6360 kPa) was 0.02611 ± 0.00048 W/m/K. For the same compound, the thermal conductivity (325.28 K, 5060 kPa) was 0.02323 ± 0.00043 W/m/K, the thermal conductivity (325.42 K, 4605 kPa) was 0.02254 ± 0.00042 W/m/K and the thermal conductivity (325.48 K, 4040 kPa) was 0.02182 ± 0.0004 W/m/K. The thermal conductivity (325.64 K, 3500 kPa) was 0.02126 ± 0.0004 W/m/K, the thermal conductivity (325.81 K, 2880 kPa) was 0.02052 ± 0.00038 W/m/K and the thermal conductivity (325.93 K, 2218 kPa) was 0.02003 ± 0.00037 W/m/K. It also gave a thermal conductivity (326.03 K, 1514 kPa) of 0.01958 ± 0.00037 W/m/K, a thermal conductivity (326.17 K, 684 kPa) of 0.01921 ± 0.00036 W/m/K and a thermal conductivity (326.26 K, 497 kPa) of 0.0191 ± 0.00036 W/m/K. The thermal conductivity (350.83 K, 9985 kPa) was 0.03324 ± 0.0006 W/m/K, the thermal conductivity (350.89 K, 8840 kPa) was 0.03029 ± 0.00055 W/m/K and the thermal conductivity (350.96 K, 7540 kPa) was 0.02768 ± 0.0005 W/m/K. It also gave a thermal conductivity (351.12 K, 6040 kPa) of 0.02551 ± 0.00047 W/m/K, a thermal conductivity (351.44 K, 4275 kPa) of 0.02351 ± 0.00043 W/m/K and a thermal conductivity (351.82 K, 2214 kPa) of 0.02197 ± 0.0004 W/m/K. The thermal conductivity (351.87 K, 1820 kPa) was 0.02181 ± 0.0004 W/m/K, the thermal conductivity (351.91 K, 1420 kPa) was 0.02153 ± 0.0004 W/m/K and the thermal conductivity (352.1 K, 994 kPa) was 0.02141 ± 0.00039 W/m/K. It also gave a thermal conductivity (352.23 K, 572 kPa) of 0.02136 ± 0.00039 W/m/K, a thermal conductivity (375.68 K, 14930 kPa) of 0.04175 ± 0.00075 W/m/K and a thermal conductivity (375.71 K, 13880 kPa) of 0.03888 ± 0.0007 W/m/K. The thermal conductivity (375.75 K, 12560 kPa) was 0.03615 ± 0.00065 W/m/K, the thermal conductivity (375.8 K, 11100 kPa) was 0.03322 ± 0.0006 W/m/K and the thermal conductivity (375.85 K, 9640 kPa) was 0.03079 ± 0.00056 W/m/K. The thermal conductivity (375.91 K, 8060 kPa) was 0.02887 ± 0.00052 W/m/K, the thermal conductivity (376.01 K, 6260 kPa) was 0.02673 ± 0.00049 W/m/K and the thermal conductivity (376.11 K, 4240 kPa) was 0.02504 ± 0.00046 W/m/K. For the same compound, the thermal conductivity (376.28 K, 2004 kPa) was 0.02377 ± 0.00043 W/m/K, the thermal conductivity (376.51 K, 1015 kPa) was 0.02346 ± 0.00043 W/m/K and the thermal conductivity (400.85 K, 15010 kPa) was 0.03843 ± 0.00069 W/m/K. For the same compound, the thermal conductivity (400.93 K, 13550 kPa) was 0.03623 ± 0.00066 W/m/K, the thermal conductivity (400.98 K, 11950 kPa) was 0.03389 ± 0.00061 W/m/K and the thermal conductivity (401.03 K, 10340 kPa) was 0.03194 ± 0.00058 W/m/K. For the same compound, the thermal conductivity (401.15 K, 8495 kPa) was 0.03004 ± 0.00054 W/m/K, the thermal conductivity (401.3 K, 6660 kPa) was 0.0285 ± 0.00052 W/m/K and the thermal conductivity (401.42 K, 4600 kPa) was 0.02712 ± 0.00049 W/m/K. It also gave a thermal conductivity (401.6 K, 2382 kPa) of 0.02597 ± 0.00047 W/m/K, a thermal conductivity (401.66 K, 1690 kPa) of 0.02584 ± 0.00047 W/m/K and a thermal conductivity (401.74 K, 975 kPa) of 0.02566 ± 0.00046 W/m/K. For the same compound, the thermal conductivity (427.12 K, 12000 kPa) was 0.03429 ± 0.00062 W/m/K, the thermal conductivity (427.23 K, 9898 kPa) was 0.0325 ± 0.00059 W/m/K and the thermal conductivity (427.38 K, 8240 kPa) was 0.03127 ± 0.00056 W/m/K. For the same compound, the thermal conductivity (427.51 K, 6160 kPa) was 0.02966 ± 0.00053 W/m/K, the thermal conductivity (427.67 K, 3970 kPa) was 0.02879 ± 0.00052 W/m/K and the thermal conductivity (427.7 K, 3020 kPa) was 0.02833 ± 0.00051 W/m/K. For the same compound, the thermal conductivity (427.95 K, 2050 kPa) was 0.02812 ± 0.0005 W/m/K and the thermal conductivity (428.05 K, 1040 kPa) was 0.02797 ± 0.0005 W/m/K.
